From US6590140B1, “Metal-regulated transporters and uses therefor” (Trustees of Dartmouth College, priority 1996, dated 2003)
“And” between values parts separate entries of the source, which are not always exact repeats. Identical values can stand only once.

Tests used:
zrt1 mutant (ZHY1) cells = format: cell-based, Saccharomyces cerevisiae; conditions: for effect on zrt1 growth in LIM: 500 μM metal added to iron-limiting medium LIM (1 mM EDTA)
Experimental: Strains used were DY1457 (MATα ade6 can1 his3 leu2 trp1 ura3) and ZHY1 (MaTα ade6 can1 his3 leu2 trp1 ura3 zrt1:: LEU2). Yeast were grown in standard culture media (SD, YPD) (Eide, D., Davis-Kaplan S., Jordan, I., Sipe, D., and Kaplan, J. (199: 2) J. Biol. Chem. 267, 20774-20781) supplemented with necessary auxotrophic requirements and either 2% glucose or 2% galactose. A zinc-limiting medium (LZM) was prepared in the same manner as LIM (Eide and Guarenete (1992) J. Gen. Microbiol. 138:347-354) except that […]. Cell number in liquid cultures was determined by measuring the optical density of cell suspensions at 600 nm (A600) and converting to cell number with a standard curve.
Strains used were DY1457 (MATα ade6 can1 his3 leu2 trp1 ura3), ZHY1 (AMTα ade6 can1 his3 leu2 trp1 ura3 zrt1::LEU2), ZHY2 (MATα ade6 can1 his3 leu2 trp1 ura3 zrt2::HIS3), and ZHY3 (MATα ade6 can1 his3 leu2 trp1 ura3 zrt1::LEU2 zrt2::HIS3). Yeast were grown in YP or SD media (Sherman et al. (1986) Methods in Yeast Genetics, Cold Spring Harbor Laboratory, Cold Spring Harbor, N.Y.) supplemented with necessary auxotrophic requirements and either 2% glucose or 2% galactose. Zinc-limiting YP and SD agar plates contained either bathophenanthroline disulfonate (BPS, 200 μM) or EDTA (1 mM), respectively. A liquid zinc-limiting medium (low zinc medium, LZM) was prepared in the same manner as low iron medium (LIM) (Eide and Guarente (1992) J. Gen. Microbiol. 138:347-354) except that the […]. LZM is similar in composition to SD medium with two modifications essential to controlling zinc availability. First, 1 mM EDTA is added to provide buffering for the concentration of free metal ions. Second, the medium is pH-buffered at 4.2 with 20 mM citrate to prevent pH changes that could alter the metal binding ability of EDTA. LZM was also prepared without EDTA ([…]) which is less zinc-limiting because the predominant chelator in this medium, citrate, binds zinc with less affinity than does EDTA. The concentrations of free (i.e. unchelated) zinc were calculated using MAXCHELATOR software (Chris Patton, Stanford University). Cell number in liquid cultures was determined by measuring the absorbance of cell suspensions at 600 nm (OD600) and converting to cell number with a standard curve.
To examine the function of ZRT1, a disruption mutation, zrt1::LEU2, was constructed by inserting the LEU2 gene into the center of ZRT1 (FIG. 6). This zrt1 disruption allele was then introduced into a haploid yeast strain. […] Because of the high EDTA concentration in LIM (1 mM), this medium is expected to have low available levels of other metals that are bound tightly by this chelator. Supplements of other metals were tested for improved growth of the zrt1 mutant in LIM. […] To study this effect further, a low zinc medium, LZM, was developed in which cell growth could be limited by zinc deficiency and the growth response of the wild type and zrt1 mutant strains to increasing levels of supplemented zinc was examined. Wild type (DY1457, squares) and zrt1 mutant (ZHY1, circles) cells were inoculated into LZM supplemented with the indicated amount of ZnSO4 and grown for 16 hours prior to cell number determination. […] Mutant zrt1 cells attained this same maximum number of cell divisions only with zinc supplements of 750 μM or more, i.e. a 75-fold increase in the zinc requirement of the zrt1 mutant compared to the wild type.
To further assess the role of the low affinity system as a source of zinc, growth of wild type and zrt2 cells in a zinc-limiting medium, LZM, supplemented with increasing amounts of zinc was examined. The same strains as in FIG. 15 were grown for six hours in SD glucose medium, harvested, washed in LZM, and reinoculated into either LZM (FIG. 15A) or LZM-EDTA (FIG. 15B) supplemented with the indicated concentrations of ZnCl2 ([Zn]T). […]

IRT1 = target: T1, IRT1 (Arabidopsis thaliana, UniProt Q38856); experiment: 55Fe uptake in fet3 fet4 yeast expressing IRT1; format: cell-based; conditions: metal at 100-fold excess
T1 construct: contain a single 1017 bp open reading frame capable of encoding a polypeptide of 339 amino acids; expressed in transfected cells; host or cells: S. cerevisiae fet3 fet4 strain DEY1453 carrying pIRT-1 (pFL61 library vector, phosphoglycerate kinase promoter)
T1 sequence (Q38856 9-347 limits assumed): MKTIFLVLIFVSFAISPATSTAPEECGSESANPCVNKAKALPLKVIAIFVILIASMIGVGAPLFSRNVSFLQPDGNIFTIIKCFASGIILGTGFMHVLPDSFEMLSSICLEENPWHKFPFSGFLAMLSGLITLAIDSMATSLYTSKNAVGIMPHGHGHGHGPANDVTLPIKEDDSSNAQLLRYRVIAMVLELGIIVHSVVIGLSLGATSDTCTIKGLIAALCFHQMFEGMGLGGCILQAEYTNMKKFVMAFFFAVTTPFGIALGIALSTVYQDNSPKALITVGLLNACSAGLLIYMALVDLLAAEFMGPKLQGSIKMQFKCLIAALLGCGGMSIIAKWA

Compound	effect on zrt1 growth in LIM (zrt1 mutant (ZHY1) cells)	inhibition of IRT1-dependent iron uptake (IRT1)	increase in zinc requirement of zrt1 mutant compared to wild type (zrt1 mutant (ZHY1) cells; growth in zinc-limiting medium)	total zinc required for maximum number of cell divisions (zrt1 mutant (ZHY1) cells; zrt1, LZM)	total zinc for maximum number of divisions (zrt1 mutant (ZHY1) cells; zrt1, LZM-EDTA (LZM without EDTA), 16 hours) [µM]	calculated free zinc [Zn]F for maximum number of divisions (zrt1 mutant (ZHY1) cells; zrt1, LZM-EDTA, 16 hours) [nM]	growth rate versus untreated culture (zrt1 mutant (ZHY1) cells; zrt1 cells, SD glucose supplemented with 2 mM ZnCl2)
[Cl][Cu][Cl] [Cu]	no effect	–	–	–	–	–	–
[Cl-].[Cl-].[Co+2] [Co]	no effect	inhibit IRT1-dependent iron uptake	–	–	–	–	–
[Zn+2] [zinc]	greatly enhanced growth	inhibit IRT1-dependent iron uptake	75 fold and 100 fold	approximately 500 μM	0.5	~6	No difference in growth rate
[Cl][Mn][Cl] [Mn]	no effect	inhibit IRT1-dependent iron uptake	–	–	–	–	–
